Measured values reported in patent US12077503B2, “Substituted cyclic amides and their use as herbicides” (FMC CORPORATION, priority 2015, dated 2024).

Experiments:
Format in all cases: in vivo
[1] = tested on: giant foxtail (Setaria faberi); test: Test G Post-Emergence Protocol; conditions: Setaria faberi, post-emergence, 312 h; for pest or weed control at 15.625 g/ha: 15.625 g ai/ha, evaluated after 13 days (100=total damage to plant; 0=no damage to plant), read-out: Foxtail, Giant damage rating; for pest or weed control at 62.5 g/ha: 62.5 g ai/ha, read-out: Foxtail, Giant damage rating (100=total damage to plant; 0=no damage to plant); for pest or weed control at 62.5 g/ha / pest or weed control at 250 g/ha: evaluated after 13 days; for pest or weed control at 250 g/ha: 250 g ai/ha, read-out: damage to plant, Foxtail, Giant (100=total damage to plant; 0=no damage to plant)
How it was run: (§1)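 Scores run 0 (no damage) to 100 (total damage) and were taken 13 days after spraying. Plants had been raised in pots for 8 days under glasshouse control (24/16 °C, 14 h photoperiod, 65% humidity) and then treated at 15.625, 62.5 or 250 g/ha.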

[2] = tested on: velvetleaf (Abutilon theophrasti); test: Test G Post-Emergence Protocol; conditions: Abutilon theophrasti, post-emergence, 312 h; for pest or weed control at 15.625 g/ha: 15.625 g ai/ha, evaluated after 13 days (100=total damage to plant; 0=no damage to plant), read-out: Velvetleaf damage rating; for pest or weed control at 62.5 g/ha: 62.5 g ai/ha, read-out: Velvetleaf damage rating (100=total damage to plant; 0=no damage to plant); for pest or weed control at 62.5 g/ha / pest or weed control at 250 g/ha: evaluated after 13 days; for pest or weed control at 250 g/ha: 250 g ai/ha, read-out: damage to plant, Velvetleaf (100=total damage to plant; 0=no damage to plant)
How it was run: as §1

[3] = tested on: barnyardgrass (Echinochloa crus-galli); test: Test G Post-Emergence Protocol; conditions: Echinochloa crus-galli, post-emergence, 312 h; for pest or weed control at 15.625 g/ha: 15.625 g ai/ha, evaluated after 13 days (100=total damage to plant; 0=no damage to plant), read-out: Barnyardgrass damage rating; for pest or weed control at 62.5 g/ha: 62.5 g ai/ha, read-out: Barnyardgrass damage rating (100=total damage to plant; 0=no damage to plant); for pest or weed control at 62.5 g/ha / pest or weed control at 250 g/ha: evaluated after 13 days; for pest or weed control at 250 g/ha: 250 g ai/ha, read-out: damage to plant, Barnyardgrass (100=total damage to plant; 0=no damage to plant)
How it was run: as §1

corn (Zea mays) [4] = test: Test G Post-Emergence Protocol; conditions: Zea mays, post-emergence, 312 h; for plant injury at 15.625 g/ha: 15.625 g ai/ha, evaluated after 13 days (100=total damage to plant; 0=no damage to plant), read-out: Corn damage rating; for plant injury at 62.5 g/ha: 62.5 g ai/ha, read-out: Corn damage rating (100=total damage to plant; 0=no damage to plant); for plant injury at 62.5 g/ha / plant injury at 250 g/ha: evaluated after 13 days; for plant injury at 250 g/ha: 250 g ai/ha, read-out: damage to plant, Corn (100=total damage to plant; 0=no damage to plant)
How it was run: as §1

[5] = tested on: ivy-leaved morning glory (Ipomoea hederacea); test: Test G Post-Emergence Protocol; conditions: Ipomoea, post-emergence, 312 h; for pest or weed control at 15.625 g/ha: 15.625 g ai/ha, evaluated after 13 days (100=total damage to plant; 0=no damage to plant), read-out: Morningglory, Ivy-leaved damage rating; for pest or weed control at 62.5 g/ha: 62.5 g ai/ha, read-out: Morningglory, Ivy-leaved damage rating (100=total damage to plant; 0=no damage to plant); for pest or weed control at 62.5 g/ha / pest or weed control at 250 g/ha: evaluated after 13 days; for pest or weed control at 250 g/ha: 250 g ai/ha, read-out: damage to plant, Morningglory, Ivy-leaved (100=total damage to plant; 0=no damage to plant)
How it was run: as §1

[6] = tested on: redroot pigweed (Amaranthus retroflexus); test: Test G Post-Emergence Protocol; conditions: Amaranthus retroflexus, post-emergence, 312 h; for pest or weed control at 15.625 g/ha: 15.625 g ai/ha, evaluated after 13 days (100=total damage to plant; 0=no damage to plant), read-out: Pigweed, Redroot damage rating; for pest or weed control at 62.5 g/ha: 62.5 g ai/ha, read-out: Pigweed, Redroot damage rating (100=total damage to plant; 0=no damage to plant); for pest or weed control at 62.5 g/ha / pest or weed control at 250 g/ha: evaluated after 13 days; for pest or weed control at 250 g/ha: 250 g ai/ha, read-out: damage to plant, Pigweed, Redroot (100=total damage to plant; 0=no damage to plant)
How it was run: as §1

[7] = tested on: giant foxtail (Setaria faberi); test: Test G Pre-Emergence Protocol; conditions: Setaria faberi, pre-emergence, 312 h, evaluated after 13 days; for pest or weed control at 15.625 g/ha: 15.625 g ai/ha; for pest or weed control at 15.625 g/ha / pest or weed control at 250 g/ha: read-out: Foxtail, Giant damage rating (100=total damage to plant; 0=no damage to plant); for pest or weed control at 62.5 g/ha: 62.5 g ai/ha, 100=total damage to plant, 0=no damage to plant, read-out: plant damage rating, Foxtail, Giant; for pest or weed control at 250 g/ha: 250 g ai/ha
How it was run: (§2)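 Pre-emergence spray, 15.625/62.5/250 g/ha, vehicle acetone:water 50:50 + 0.5% Tween 20, applied 1 d after sowing. Glasshouse 24/16° C, 14 h light, 65% RH, watered twice daily. Visual damage rating at 13 d, 0–100 scale.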

[8] = tested on: velvetleaf (Abutilon theophrasti); test: Test G Pre-Emergence Protocol; conditions: Abutilon theophrasti, pre-emergence, 312 h, evaluated after 13 days; for pest or weed control at 15.625 g/ha: 15.625 g ai/ha; for pest or weed control at 15.625 g/ha / pest or weed control at 250 g/ha: read-out: Velvetleaf damage rating (100=total damage to plant; 0=no damage to plant); for pest or weed control at 62.5 g/ha: 62.5 g ai/ha, 100=total damage to plant, 0=no damage to plant, read-out: plant damage rating, Velvetleaf; for pest or weed control at 250 g/ha: 250 g ai/ha
How it was run: as §2

[9] = tested on: barnyardgrass (Echinochloa crus-galli); test: Test G Pre-Emergence Protocol; conditions: Echinochloa crus-galli, pre-emergence, 312 h, evaluated after 13 days; for pest or weed control at 15.625 g/ha: 15.625 g ai/ha, read-out: Barnyard grass damage rating (100=total damage to plant; 0=no damage to plant); for pest or weed control at 62.5 g/ha: 62.5 g ai/ha, 100=total damage to plant, 0=no damage to plant, read-out: plant damage rating, Barnyardgrass; for pest or weed control at 250 g/ha: 250 g ai/ha, read-out: Barnyardgrass damage rating (100=total damage to plant; 0=no damage to plant)
How it was run: as §2

corn (Zea mays) [10] = test: Test G Pre-Emergence Protocol; conditions: Zea mays, pre-emergence, 312 h, evaluated after 13 days; for plant injury at 15.625 g/ha: 15.625 g ai/ha; for plant injury at 15.625 g/ha / plant injury at 250 g/ha: read-out: Corn damage rating (100=total damage to plant; 0=no damage to plant); for plant injury at 62.5 g/ha: 62.5 g ai/ha, 100=total damage to plant, 0=no damage to plant, read-out: plant damage rating, Corn; for plant injury at 250 g/ha: 250 g ai/ha
How it was run: as §2

[11] = tested on: ivy-leaved morning glory (Ipomoea hederacea); test: Test G Pre-Emergence Protocol; conditions: Ipomoea, pre-emergence, 312 h, evaluated after 13 days; for pest or weed control at 62.5 g/ha: 62.5 g ai/ha, 100=total damage to plant, 0=no damage to plant, read-out: plant damage rating, Morningglory, Ivy-leaved; for pest or weed control at 250 g/ha: 250 g ai/ha, read-out: Morningglory, Ivy-leaved damage rating (100=total damage to plant; 0=no damage to plant)
How it was run: as §2

[12] = tested on: redroot pigweed (Amaranthus retroflexus); test: Test G Pre-Emergence Protocol; conditions: Amaranthus retroflexus, pre-emergence, 312 h, evaluated after 13 days; for pest or weed control at 15.625 g/ha: 15.625 g ai/ha; for pest or weed control at 15.625 g/ha / pest or weed control at 250 g/ha: read-out: Pigweed, Redroot damage rating (100=total damage to plant; 0=no damage to plant); for pest or weed control at 62.5 g/ha: 62.5 g ai/ha, 100=total damage to plant, 0=no damage to plant, read-out: plant damage rating, Pigweed, Redroot; for pest or weed control at 250 g/ha: 250 g ai/ha
How it was run: as §2

Row | Structure (SMILES) | pest or weed control at 15.625 g/ha [1] [%] | pest or weed control at 62.5 g/ha [1] [%] | pest or weed control at 250 g/ha [1] [%] | pest or weed control at 15.625 g/ha [2] [%] | pest or weed control at 62.5 g/ha [2] [%] | pest or weed control at 250 g/ha [2] [%] | pest or weed control at 15.625 g/ha [3] [%] | pest or weed control at 62.5 g/ha [3] [%] | pest or weed control at 250 g/ha [3] [%] | plant injury at 15.625 g/ha (corn (Zea mays) [4]) [%] | plant injury at 62.5 g/ha (corn (Zea mays) [4]) [%] | plant injury at 250 g/ha (corn (Zea mays) [4]) [%] | pest or weed control at 15.625 g/ha [5] [%] | pest or weed control at 62.5 g/ha [5] [%] | pest or weed control at 250 g/ha [5] [%] | pest or weed control at 15.625 g/ha [6] [%] | pest or weed control at 62.5 g/ha [6] [%] | pest or weed control at 250 g/ha [6] [%] | pest or weed control at 15.625 g/ha [7] [%] | pest or weed control at 62.5 g/ha [7] [%] | also measured
1 | Cc1conc1NC(=O)[C@@H]1C(=O)N(C)C[C@H]1c1ccc(C(F)(F)F)cc1 (racemic) [Compound 1553] | 0 | 0 | 0 | 0 | 0 | 0 | 0 | 0 | 0 | 0 | 0 | 0 | 0 | 0 | 0 | 0 | 0 | 0 | 0 | 0 | pest or weed control at 250 g/ha [7]: 0%; pest or weed control at 15.625 g/ha [8]: 0%; pest or weed control at 62.5 g/ha [8]: 0%; pest or weed control at 250 g/ha [8]: 0%; pest or weed control at 15.625 g/ha [9]: 0%; pest or weed control at 62.5 g/ha [9]: 0%; pest or weed control at 250 g/ha [9]: 0%; plant injury at 15.625 g/ha (corn (Zea mays) [10]): 0%; plant injury at 62.5 g/ha (corn (Zea mays) [10]): 0%; plant injury at 250 g/ha (corn (Zea mays) [10]): 0%; pest or weed control at 62.5 g/ha [11]: 0%; pest or weed control at 250 g/ha [11]: 0%; pest or weed control at 15.625 g/ha [12]: 0%; pest or weed control at 62.5 g/ha [12]: 0%; pest or weed control at 250 g/ha [12]: 0%
2 | CN1C[C@H](c2ccc(C(F)(F)F)cc2)[C@@H](C(=O)Nc2ncc(Cl)cc2Cl)C1=O (racemic) [Compound 1435] | 0 | 0 | 0 | 0 | 0 | 0 | 0 | 0 | 0 | 0 | 0 | 10 | 0 | 0 | 0 | 0 | 30 | 30 | 0 | 0 | pest or weed control at 250 g/ha [7]: 0%; pest or weed control at 15.625 g/ha [8]: 0%; pest or weed control at 62.5 g/ha [8]: 0%; pest or weed control at 250 g/ha [8]: 0%; pest or weed control at 15.625 g/ha [9]: 0%; pest or weed control at 62.5 g/ha [9]: 0%; pest or weed control at 250 g/ha [9]: 0%; plant injury at 15.625 g/ha (corn (Zea mays) [10]): 0%; plant injury at 62.5 g/ha (corn (Zea mays) [10]): 0%; plant injury at 250 g/ha (corn (Zea mays) [10]): 0%; pest or weed control at 15.625 g/ha ([11]; 15.625 g ai/ha, read-out: Morning-glory, Ivy-leaved damage rating (100=total damage to plant; 0=no damage to plant)): 0%; pest or weed control at 62.5 g/ha [11]: 0%; pest or weed control at 250 g/ha [11]: 0%; pest or weed control at 15.625 g/ha [12]: 0%; pest or weed control at 62.5 g/ha [12]: 0%; pest or weed control at 250 g/ha [12]: 0%
